“Also recorded” adds a separate entry of the source. Marks after values point to notes of the source that are not given here.
How the values were obtained:
[1] = system: ICR female mice treated with eCG/hCG; assay: Live birth after embryo transfer in gonadotropin-treated mice; assay type: in vivo; conditions: for live births compared with control group (exogenous gonadotropin only): 12 embryos transferred on day 4, counted on day of delivery, drugs 200 mg/kg BW total i.p. daily
Protocol: Superovulation stimulation and BGJ398 group (eCG/hCG+BGJ398): Female 8-week-old ICR mice were taken as the research object and injected with 10 IU eCG and PMSG to induce superovulation, respectively. On day 3 of pregnancy, the mice were injected with 5 μL of FGF receptor inhibitor containing 100 μM BGJ398 inhibitor through the uterine horn. Embryo transfer was then performed on day 4 after the vaginal plug was observed.
Embryo transfer was separately performed on the mice in the CON group, eCG/hCG group, eCG/hCG+BGJ398 group, eCG/hCG+NAC group, eCG/hCG+VA group, and eCG/hCG+NAC+VA group on day 4 of pregnancy, and the mice were then placed in the animal house for normal feeding. On the day of delivery, the number born alive index was counted. […]

pERK = assay: Molecular detection of pERK in mouse endometrium after eCG/hCG treatment; assay type: in vivo; conditions: day 4 after vaginal plug, NAC 200 mg/kg BW i.p. daily, BGJ398 100 μM, 5 μL via uterine horn, or NAC 100 + VA 100 mg/kg BW
From the text: (§1) 2.2 Molecular Regulation Effect of N-Acetylcysteine in Combination with Vitamin A on Alleviating Uterine Receptivity Decrease Induced by Gonadotropin Treatments
(§2) In the animal experiment, ICR female mice (SPF grade, 8 weeks old, 28-30 g) were selected and randomized into groups of 10-18, including normal control group (CON), superovulation stimulation group (eCG/hCG), superovulation stimulation and BGJ398 group (eCG/hCG+BGJ398), superovulation stimulation and NAC single administration group (eCG/hCG+NAC), superovulation stimulation and VA single administration group (eCG/hCG+VA), superovulation stimulation and NAC and VA combined administration group (eCG/hCG+NAC+VA). The temperature of the breeding environment was 22° C., 12-h light/dark cycle was performed, and the mice were provided with free access to water and food. After the animals were purchased, they were acclimated for 5-7 days.
(§3) Control group (CON): A female 8-week-old ICR mouse was taken as the research object, subjected to natural estrus, mated with a vasoligated male mouse, and was taken as the control group. The uterus of the mouse was then separated on day 4 after the vaginal plug was observed, namely, when the uterine receptivity was established, and the detection of a plurality of signal molecules was carried out. […]

[2] = system: ICR female mice treated with eCG/hCG; assay: Embryo implantation sites after embryo transfer in gonadotropin-treated mice; assay type: in vivo, mouse; conditions: for number of implantation sites compared with control group (exogenous gonadotropin only): 12 embryos transferred on day 4, counted on day 5 of pregnancy, drugs 200 mg/kg BW total i.p. daily, BGJ398 100 μM via uterine horn; for effect on implantation and live birth, alone or in synergy with NAC/VA: 200 mg/kg BW alone, or 100 + 100 mg/kg BW with NAC/VA
From the text: as §2
Superovulation stimulation and BGJ398 group (eCG/hCG+BGJ398): Female 8-week-old ICR mice were taken as the research object and injected with 10 IU eCG and […] to induce superovulation, respectively. On day 3 of pregnancy, the mice were injected with 5 μL of FGF receptor inhibitor containing 100 μM BGJ398 inhibitor through the uterine horn. Embryo transfer was then performed on day 4 after the vaginal plug was observed.
Superovulation stimulation and NAC single administration group (eCG/hCG+NAC): A female 8-week-old ICR mouse was taken as the research object. On the basis of the treatment of the superovulation stimulation group (eCG/hCG), each mouse was intraperitoneally injected with NAC at a dose of 200 mg/kg BW daily 5 days prior to the injection of eCG. Embryo transfer was then performed on day 4 after the vaginal plug was observed. The injection was continued until day 10 of pregnancy.
Superovulation stimulation and VA single administration group (eCG/hCG+VA): A female 8-week-old ICR mouse was taken as the research object. On the basis of the treatment of the superovulation stimulation group (eCG/hCG), each mouse was intraperitoneally injected with VA at a dose of 200 mg/kg BW daily 5 days prior to the injection of eCG/hCG. Embryo transfer was then performed on day 4 after the vaginal plug was observed. The injection was continued until day 10 of pregnancy.
Superovulation stimulation and NAC and VA combined administration group (eCG/hCG+NAC+VA): A female 8-week-old ICR mouse was taken as the research object. On the basis of the treatment of the superovulation stimulation group (eCG/hCG), each mouse was intraperitoneally injected with a mixture of NAC at a dose of 100 mg/kg BW and VA at a dose of 100 mg/kg BW daily 5 days prior to the injection of eCG. Embryo transfer was then performed on day 4 after the vaginal plug was observed. The injection was continued until day 10 of pregnancy.
The mice in the CON group, eCG/hCG group, eCG/hCG+BGJ398 group, eCG/hCG+NAC group, eCG/hCG+VA group, and eCG/hCG+NAC+VA group were separately in the same cage and mated with a vasoligated male mouse. The vaginal plug was checked at about 8 am in the next morning. The pseudopregnant female mouse whose vaginal plug was observed was ready for transfer. The day when the vaginal plug was observed was taken as day 1, and day 4 was the date of blastocyst transfer. […]
Embryo transfer was separately performed on the mice in the CON group, eCG/hCG group, eCG/hCG+BGJ398 group, eCG/hCG+NAC group, eCG/hCG+VA group, and eCG/hCG+NAC+VA group on day 4 of pregnancy; embryo implantation sites were counted by orbital injection of Chicago blue on day 5 of pregnancy. […]

Gilts = assay: Reproductive performance of gilts in batch farrowing with FTAI (pregnancy rate, farrowing rate); assay type: in vivo, pig; conditions: for Estrus detection rate (%) / Farrowing rate (%) / Pregnancy Rate (%): batch farrowing with FTAI (eCG/GnRH), drugs in feed, 200 mg/kg BW total daily; for female pig farrowing rate compared with batch farrowing with FTAI (control group) / female pig pregnancy rate compared with batch farrowing with FTAI (control group): eCG/GnRH, result in words
From the text: Gilts with the weight of 120-140 kg and the age of 200-250 days were selected for the experiment, which were divided into the batch farrowing with FTAI (CON) group, batch farrowing supplemented with NAC (NAC) group, batch farrowing supplemented with VA (VA) group, batch farrowing with combined administration of NAC and VA (NAC+VA 1:1) group, batch farrowing with combined administration of NAC and VA (NAC+VA […]) group, and batch farrowing with combined administration of NAC and VA (NAC+VA 9:1) group. Each group had 48-55 gilts.
The technical process of batch farrowing of the gilts in the CON group (namely the batch farrowing with FTAI scheme) was as follows: 1) estrus synchronization treatment: the gilt orally taken altrenogest for 18 days; 2) after an interval of 42 h after the estrus synchronization treatment, exogenous gonadotropin eCG was injected to induce follicular development synchronization; 3) after an interval of 80 h after eCG injection, an ovulatio induction drugs (GnRH) was injected. After an interval of 24 h after the injection, a first mating was carried out, and then after an interval of 16 h, a second mating was carried out. Pregnancy examination was then performed and the gilts were fed normally until delivery.
On the basis of the technical process of batch farrowing of the gilts in the CON group, in the NAC group, VA group, and NAC+VA group, NAC at a dose of 200 mg/kg BW, VA at a dose of 200 mg/kg BW, combined addition of NAC (100 mg/kg BW) and VA (100 mg/kg BW), combined addition of NAC (20 mg/kg BW) and VA (180 mg/kg BW), and combined addition of NAC (180 mg/kg BW) and VA (20 mg/kg BW) were separately added into the feed daily 14 days prior to the eCG injection until the end of first pregnancy examination (day 30-32 of pregnancy). The gilts were then fed normally until delivery.
The pregnancy rate of the female pigs was counted through pregnancy examination; the farrowing rate of the female pigs was counted during delivery. The pregnancy rate and the farrowing rate of female pigs from different treatment groups were calculated as follows: Female pig pregnancy rate=pregnant female pig count/mated female pig count×100% Female pig farrowing rate=delivery female pig count/mated female pig count×100%

ERα = assay: Molecular detection of ERα in mouse endometrium after eCG/hCG treatment; assay type: in vivo; conditions: day 4 after vaginal plug, VA 200 mg/kg BW i.p. daily alone, or NAC 100 + VA 100 mg/kg BW
From the text: as §1, §2, §3

With `CCN1CCN(c2ccc(Nc3cc(N(C)C(=O)Nc4c(Cl)c(OC)cc(OC)c4Cl)ncn3)cc2)CC1` [BGJ398] the “toxicity to fetal development after implantation” value ([1]; BGJ398 100 μM, 5 μL via uterine horn on day 3) was “highly toxic; also recorded: negatively affect fetal development; also recorded: fetus regressed”, the “excessive phosphorylation of pERK (exogenous gonadotropin-induced pERK overexpression)” value (pERK) was “significantly inhibit” and the “number of implantation sites compared with control group (exogenous gonadotropin only)” value [2] was “significantly higher; also recorded: significantly increase”.
`COc1ccc2[nH]cc(CCNC(C)=O)c2c1` [MT, melatonin] was tested, and the “effect on implantation and live birth, alone or in synergy with NAC/VA” value [2] was “do not work well”.
`CC(=O)N[C@@H](CS)C(=O)O` [NAC, N-acetyl-L-cysteine] was tested, and the “live births compared with control group (exogenous gonadotropin only)” value [1] was “increased to some extent”, the “excessive phosphorylation of pERK (exogenous gonadotropin-induced pERK overexpression)” value (pERK) was “significantly inhibit” and the “Estrus detection rate (%)” value (Gilts) was 88.89%. The “Farrowing rate (%)” value (Gilts) was 81.48^b %, the “Pregnancy Rate (%)” value (Gilts) was 85.19^b % and the “female pig farrowing rate compared with batch farrowing with FTAI (control group)” value (Gilts) was “significantly improve”. For the same molecule, the “female pig pregnancy rate compared with batch farrowing with FTAI (control group)” value (Gilts) was “significantly improve” and the “number of implantation sites compared with control group (exogenous gonadotropin only)” value [2] was “increased to some extent”.
With `CC1=C(/C=C/C(C)=C/C=C/C(C)=C/CO)C(C)(C)CCC1` [VA, vitamin A] the “live births compared with control group (exogenous gonadotropin only)” value [1] was “increased to some extent”, the “Estrus detection rate (%)” value (Gilts) was 93.75% and the “Farrowing rate (%)” value (Gilts) was 83.33^b %. The “Pregnancy Rate (%)” value (Gilts) was 89.58^b %, the “female pig farrowing rate compared with batch farrowing with FTAI (control group)” value (Gilts) was “significantly improve” and the “female pig pregnancy rate compared with batch farrowing with FTAI (control group)” value (Gilts) was “significantly improve”. The “expression of ERα (exogenous gonadotropin-induced ERα overexpression)” value (ERα) was “significantly inhibits” and the “number of implantation sites compared with control group (exogenous gonadotropin only)” value [2] was “increased to some extent”.
For `O=C1O[C@H]([C@@H](O)CO)C(O)=C1O` [VC, vitamin C], the “effect on implantation and live birth, alone or in synergy with NAC/VA” value [2] was “do not work well”.
